Reference: patent publication US20260242353A1, “HETEROARYL DERIVATIVES AS DDRs INHIBITORS” (CHIESI FARMACEUTICI S.P.A., priority 2022, published 2026)

Experiments:
DDR1 = target: T1, DDR1 (Homo sapiens, UniProt Q08345); assay: LanthaScreen Europium Kinase Binding assay, DDR1; conditions: 5 nM DDR1, 20 nM Kinase Tracer 178, 1 h at rt; Ki from IC50 by Cheng-Prusoff; read-out: Ki DDR1
T1 construct: purchased Carna Biosciences
Summary of the method: (§1)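 Compounds were incubated 1 h at rt with 5 nM DDR1 plus 20 nM Kinase Tracer 178, or 5 nM DDR2 plus 10 nM tracer, and 2 nM Eu anti-GST antibody in HEPES pH 7.5 buffer. Read-out was the TR-FRET 665/615 nm ratio. IC50 came from a 4-parameter fit and was converted to Ki by Cheng-Prusoff.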

DDR2 = target: T2, DDR2 (Homo sapiens, UniProt Q16832); assay: LanthaScreen Europium Kinase Binding assay, DDR2; conditions: 5 nM DDR2, 10 nM Kinase Tracer 178, 1 h at rt; Ki from IC50 by Cheng-Prusoff; read-out: Ki DDR2
T2 construct: purchased Life Technologies
T2 sequence (Q16832 22-855): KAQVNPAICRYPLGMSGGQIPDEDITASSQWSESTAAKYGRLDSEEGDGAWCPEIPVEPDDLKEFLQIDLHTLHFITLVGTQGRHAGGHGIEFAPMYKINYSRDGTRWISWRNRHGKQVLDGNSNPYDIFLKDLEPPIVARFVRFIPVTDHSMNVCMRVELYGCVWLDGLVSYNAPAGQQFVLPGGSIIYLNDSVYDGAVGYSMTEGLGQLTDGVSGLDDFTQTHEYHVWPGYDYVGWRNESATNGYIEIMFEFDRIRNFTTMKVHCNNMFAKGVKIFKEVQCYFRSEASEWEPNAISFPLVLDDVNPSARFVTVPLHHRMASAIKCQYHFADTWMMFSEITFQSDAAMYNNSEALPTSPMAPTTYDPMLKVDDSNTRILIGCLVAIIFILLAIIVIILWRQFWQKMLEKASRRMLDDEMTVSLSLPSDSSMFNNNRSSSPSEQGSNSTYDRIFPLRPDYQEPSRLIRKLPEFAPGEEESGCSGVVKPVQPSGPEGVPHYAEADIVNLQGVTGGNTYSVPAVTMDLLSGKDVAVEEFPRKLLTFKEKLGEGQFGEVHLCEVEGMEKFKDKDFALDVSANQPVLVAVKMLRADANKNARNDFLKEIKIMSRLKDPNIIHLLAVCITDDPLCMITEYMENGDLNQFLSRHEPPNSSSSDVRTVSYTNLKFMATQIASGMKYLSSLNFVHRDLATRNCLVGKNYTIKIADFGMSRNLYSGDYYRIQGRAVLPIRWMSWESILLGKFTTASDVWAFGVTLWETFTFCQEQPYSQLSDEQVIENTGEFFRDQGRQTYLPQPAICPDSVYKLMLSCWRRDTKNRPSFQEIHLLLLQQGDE
Summary of the method: as §1

T1 sequence (Q08345 19-913): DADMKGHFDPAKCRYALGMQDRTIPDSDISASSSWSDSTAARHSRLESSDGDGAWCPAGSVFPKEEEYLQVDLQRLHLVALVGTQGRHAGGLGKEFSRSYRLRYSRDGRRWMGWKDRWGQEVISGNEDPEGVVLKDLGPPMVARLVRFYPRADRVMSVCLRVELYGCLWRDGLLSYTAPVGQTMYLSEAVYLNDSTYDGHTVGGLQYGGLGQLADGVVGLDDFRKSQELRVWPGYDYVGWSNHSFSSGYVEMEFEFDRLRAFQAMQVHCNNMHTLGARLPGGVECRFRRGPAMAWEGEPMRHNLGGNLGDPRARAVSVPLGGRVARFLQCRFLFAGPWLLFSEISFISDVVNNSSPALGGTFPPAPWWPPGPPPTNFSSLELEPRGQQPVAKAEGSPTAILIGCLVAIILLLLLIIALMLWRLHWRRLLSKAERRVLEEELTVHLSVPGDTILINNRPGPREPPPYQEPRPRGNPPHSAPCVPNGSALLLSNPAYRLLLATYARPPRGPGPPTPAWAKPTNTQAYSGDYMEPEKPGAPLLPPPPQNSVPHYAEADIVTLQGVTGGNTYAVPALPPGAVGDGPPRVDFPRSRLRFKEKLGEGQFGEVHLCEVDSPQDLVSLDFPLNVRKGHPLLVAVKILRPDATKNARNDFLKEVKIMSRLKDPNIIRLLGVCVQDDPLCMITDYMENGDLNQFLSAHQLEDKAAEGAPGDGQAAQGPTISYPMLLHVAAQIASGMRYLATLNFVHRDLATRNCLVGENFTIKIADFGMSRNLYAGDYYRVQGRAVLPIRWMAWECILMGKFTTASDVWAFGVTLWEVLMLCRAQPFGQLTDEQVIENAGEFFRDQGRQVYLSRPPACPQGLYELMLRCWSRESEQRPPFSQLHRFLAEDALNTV

SMILES	Ki (DDR1) [nM]	Ki (DDR2) [nM]
Cc1ccc(C(=O)Nc2cncc(C(F)(F)F)c2)cc1[C@@H]1CCN(c2cnn(C)c2C(N)=O)C1 [Example 65, (S)-1-methyl-4-(3-(2-methyl-5-((5-(trifluoromethyl)pyridin-3-yl)carbamoyl)phenyl)pyrrolidin-1-yl)-1H-pyrazole-5-carboxamide]	< 5	5 to 25
Cc1ccc(C(=O)Nc2cncc(C(F)(F)F)c2)cc1[C@@H]1CCN(c2cccc(C(N)=O)c2)C1 [Example 66, (S)-3-(1-(3-carbamoylphenyl)pyrrolidin-3-yl)-4-methyl-N-(5-(trifluoromethyl)pyridin-3-yl)benzamide]	5 to 25	25 to 100
Cc1ccc(C(=O)Nc2cc(C(F)F)ccn2)cc1[C@@H]1CCN(c2cncnc2)C1 [Example 67, (S)-N-(4-(difluoromethyl)pyridin-2-yl)-4-methyl-3-(1-(pyrimidin-5-yl)pyrrolidin-3-yl)benzamide]	< 5	< 5
Cc1ccc(C(=O)Nc2cc(C(F)(F)F)nn2C)cc1[C@@H]1CCN(c2cncnc2)C1 [Example 68, (S)-4-methyl-N-(1-methyl-3-(trifluoromethyl)-1H-pyrazol-5-yl)-3-(1-(pyrimidin-5-yl)pyrrolidin-3-yl)benzamide]	5 to 25	5 to 25
CCc1cc(NC(=O)c2ccc(C)c([C@@H]3CCN(c4cncnc4)C3)c2)no1 [Example 69, (S)-N-(5-ethylisoxazol-3-yl)-4-methyl-3-(1-(pyrimidin-5-yl)pyrrolidin-3-yl)benzamide]	< 5	5 to 25
Cc1ccc(C(=O)Nc2cc(C3CC3)nn2C)cc1[C@@H]1CCN(c2cncnc2)C1 [Example 70, (S)-N-(3-cyclopropyl-1-methyl-1H-pyrazol-5-yl)-4-methyl-3-(1-(pyrimidin-5-yl)pyrrolidin-3-yl)benzamide]	5 to 25	25 to 100
Cc1ccc(C(=O)Nc2cncc(C(F)(F)F)c2)cc1[C@@H]1CCN(c2cnc3ccccn23)C1 [Example 71, (S)-3-(1-(imidazo[1,2-a]pyridin-3-yl)pyrrolidin-3-yl)-4-methyl-N-(5-(trifluoromethyl)pyridin-3-yl)benzamide]	< 5	< 5
Cc1ccc(C(=O)Nc2cncc(C(F)(F)F)c2)cc1[C@@H]1CCN(c2cnc3ccc(N4CCN(C)CC4)cn23)C1 [Example 72, (S)-4-methyl-3-(1-(6-(4-methylpiperazin-1-yl)imidazo[1,2-a]pyridin-3-yl)pyrrolidin-3-yl)-N-(5-(trifluoromethyl)pyridin-3-yl)benzamide]	< 5	5 to 25
Cc1ccc(C(=O)Nc2cncc(C(F)(F)F)c2)cc1[C@@H]1CCN(c2cnc3ccc(N4CCN(CC#N)CC4)cn23)C1 [Example 73, (S)-3-(1-(6-(4-(cyanomethyl)piperazin-1-yl)imidazo[1,2-a]pyridin-3-yl)pyrrolidin-3-yl)-4-methyl-N-(5-(trifluoromethyl)pyridin-3-yl)benzamide]	< 5	5 to 25
Cc1ccc(C(=O)Nc2cncc(C(F)(F)F)c2)cc1[C@@H]1CCN(c2cncc(OCCN3CCN(C)CC3)c2)C1 [Example 74, (S)-4-methyl-3-(1-(5-(2-(4-methylpiperazin-1-yl)ethoxy)pyridin-3-yl)pyrrolidin-3-yl)-N-(5-(trifluoromethyl)pyridin-3-yl)benzamide]	< 5	5 to 25
Cc1ccc(C(=O)Nc2cncc(C(F)(F)F)c2)cc1[C@@H]1CCN(c2cnccc2C#N)C1 [Example 75, (S)-3-(1-(4-cyanopyridin-3-yl)pyrrolidin-3-yl)-4-methyl-N-(5-(trifluoromethyl)pyridin-3-yl)benzamide]	< 5	< 5
COc1ccncc1N1CC[C@@H](c2cc(C(=O)Nc3cncc(C(F)(F)F)c3)ccc2C)C1 [Example 76, (S)-3-(1-(4-methoxypyridin-3-yl)pyrrolidin-3-yl)-4-methyl-N-(5-(trifluoromethyl)pyridin-3-yl)benzamide]	< 5	< 5
Cc1ccc(C(=O)Nc2cncc(C(F)(F)F)c2)cc1[C@@H]1CCN(c2cnc3ccc(CN4CCOCC4)cn23)C1 [Example 77, (S)-4-methyl-3-(1-(6-(morpholinomethyl)imidazo [1,2-a]pyridin-3-yl)pyrrolidin-3-yl)-N-(5-(trifluoromethyl)pyridin-3-yl)benzamide]	< 5	5 to 25
Cc1ccc(C(=O)Nc2cncc(C(F)(F)F)c2)cc1[C@@H]1CCN(c2cnc3ccc(C#N)cn23)C1 [Example 78, (S)-3-(1-(6-cyanoimidazo[1,2-a]pyridin-3-yl)pyrrolidin-3-yl)-4-methyl-N-(5-(trifluoromethyl)pyridin-3-yl)benzamide]	< 5	< 5
COCCOc1cncc(N2CC[C@@H](c3cc(C(=O)Nc4cncc(C(F)(F)F)c4)ccc3C)C2)c1 [Example 79, (S)-3-(1-(5-(2-methoxyethoxy)pyridin-3-yl)pyrrolidin-3-yl)-4-methyl-N-(5-(trifluoromethyl)pyridin-3-yl)benzamide]	< 5	5 to 25
Cc1ccc(C(=O)Nc2cncc(C(F)(F)F)c2)cc1[C@@H]1CCN(c2cnc3ccc(N4CCN(C)CC4)nn23)C1 [Example 80, (S)-4-methyl-3-(1-(6-(4-methylpiperazin-1-yl)imidazo[1,2-b]pyridazin-3-yl)pyrrolidin-3-yl)-N-(5-(trifluoromethyl)pyridin-3-yl)benzamide]	5 to 25	5 to 25
Cc1ccc(C(=O)Nc2cncc(C(F)(F)F)c2)cc1[C@@H]1CCN(c2cncc(OC3CCN(C)CC3)c2)C1 [Example 81, (S)-4-methyl-3-(1-(5-((1-methylpiperidin-4-yl)oxy)pyridin-3-yl)pyrrolidin-3-yl)-N-(5-(trifluoromethyl)pyridin-3-yl)benzamide]	< 5	5 to 25
Cc1ccc(C(=O)Nc2cncc(C(F)(F)F)c2)cc1[C@@H]1CCN(c2cnn3ccc(N4CCN(C)CC4)nc23)C1 [Example 83, (S)-4-methyl-3-(1-(5-(4-methylpiperazin-1-yl)pyrazolo[1,5-a]pyrimidin-3-yl)pyrrolidin-3-yl)-N-(5-(trifluoromethyl)pyridin-3-yl)benzamide]	< 5	5 to 25
Cc1ccc(C(=O)Nc2cncc(C(F)(F)F)c2)cc1[C@@H]1CCN(c2cnc3ccc(N4CCOCC4)nn23)C1 [Example 84, (S)-4-methyl-3-(1-(6-morpholinoimidazo[1,2-b]pyridazin-3-yl)pyrrolidin-3-yl)-N-(5-(trifluoromethyl)pyridin-3-yl)benzamide]	< 5	5 to 25
CC(=O)Nc1cc(N2CC[C@@H](c3cc(C(=O)Nc4cncc(C(F)(F)F)c4)ccc3C)C2)ccn1 [Example 85, (S)-3-(1-(2-acetamidopyridin-4-yl)pyrrolidin-3-yl)-4-methyl-N-(5-(trifluoromethyl)pyridin-3-yl)benzamide]	< 5	5 to 25
Cc1ccn2ncc(N3CC[C@@H](c4cc(C(=O)Nc5cncc(C(F)(F)F)c5)ccc4C)C3)c2n1 [Example 86, (S)-4-methyl-3-(1-(5-methylpyrazolo[1,5-a]pyrimidin-3-yl)pyrrolidin-3-yl)-N-(5-(trifluoromethyl)pyridin-3-yl)benzamide]	< 5	5 to 25
